Test [1] deals with control cells that do not express the mutant JAK3 protein. As to conditions: control cells not expressing mutant JAK3. From the text: (§1) CP-690,550, which specifically binds to and blocks the ATP-binding site of JAK3 kinase, thereby preventing phosphorylation and activation of this enzyme, is commercially available and some of its properties have been described. See, e.g. Borne et al., Tranplantation 80 (12): 1756-1764 (2005); Paniagua et al., Tranplantation 80 (9): 1283-1292 (2005).

The test system of test [2] is human AML cell line (CMK). As to conditions: CMK cells expressing mutant (A572V) JAK3.
Description: as §1

Test [3] deals with CMK cells. Put plainly: CellTiter 96 AQueous One cell proliferation assay with JAK I. It counts as cell-based, human. As to conditions: seventy hours, increasing doses up to 2 micrograms/ml. Here is the method:
(§2) JAK I (Calbiochem, San Diego, Calif.) is a potent inhibitor of the JAK family of kinases, including JAK3. To confirm that JAK3 is driving the proliferation of CMK cells, the effect of JAK I on the growth and/or viability of CMK cells was examined. CMK and K562 cells (as a control) were treated for seventy hours with increasing doses of JAK I inhibitor up to 2 micrograms/ml. The number of viable cells was determined with the CellTiter 96 AQueous One solution cell proliferation assay (Promega). Apoptosis was measured with a fluorescent stain measuring annexin V.

For a further test, the system named is K562 cells. Put plainly: CellTiter 96 AQueous One cell proliferation assay with JAK I, control cell line. It counts as cell-based. As to conditions: control cell line K562, seventy hours, up to 2 micrograms/ml. The method, then: as §2
Test [4] has as its system CMK cells. Put plainly: Apoptosis by annexin V staining with JAK I. As to conditions: increasing concentrations. The format is cell-based, human. The method, then: as §2
A further test deals with STAT5. Put plainly: Western blot of STAT5 phosphorylation after JAK I. The format is cell-based, human. As to conditions: CMK cells, range of inhibitor concentrations. Here is the method:
AML-193, GDM-1, CMK, K562 and Ba/F3 cells were obtained from the German National Resource Centre for Biological Material (DSMZ). GF-D8 cells were generously provided by Dr. Orietta Spinelli, Laboratorio Paolo Belli, Bergamo, Italy. All cell lines were maintained in RPMI 1640 supplemented with 10% FCS, 1 unit/mL penicillin G, and 1 μg/mL streptomycin at 37° C. and 5% CO2. Western blotting was carried out according to standard methods, following the Western Blotting Protocol (Cell Signaling Technology, Inc., 2005-2006 Catalogue).
To further confirm the effect of the JAK I on the CMK cell line, Western blot analysis (as described above) was performed following exposure to a range of inhibitor concentrations, and the activity of the JAK3 downstream target, STAT5 examined (see FIG. 3C).
For orientation: Immunoblotting shows a protein as a band on a membrane.

For `C[C@@H]1CCN(C(=O)CC#N)C[C@@H]1N(C)c1ncnc2[nH]ccc12` [CP-690,550], the growth and survival entry in test [1] was “not in control cells”; in test [2] it was “selectively inhibited the growth and survival”.

As to `CC(C)(C)c1nc2c3cc[nH]c(=O)c3c3cc(F)ccc3c2[nH]1` [JAK I], in the test on CMK cells [3], the cell proliferation entry was “inhibition of cell proliferation” and the viability entry is recorded as “significant decrease in viability”. In addition, in the test with K562 cells, the growth and viability result is listed as “no significant effect”. Moreover, the “apoptosis as measured by annexin V staining” value in the test on CMK cells [4] is given as “increase in apoptosis”. The “phosphorylation of STAT5” value in the test with STAT5 is recorded as “inhibited phosphorylation”.

The record behind these values is US20090285796A1, “MUTANT JAK3 KINASE IN HUMAN LEUKEMIA” (CELL SIGNALING TECHNOLOGY, INC., priority 2006, published 2009).
